Article PMC10465493, “Osteogenic induction of asiatic acid derivatives in human periodontal ligament stem cells” (Scientific Reports, 2023)
Values after ≈ are worked out from the molar mass of the structure shown. Where two headings read alike, the source gives them in different places.

What was measured:
hPDLSCs [1] = assay: mRNA expression of osteogenic marker genes by quantitative RT-PCR; type: cell-based, human; conditions: for mRNA expression of all markers (BMP2, RUNX2, COL1A1, WNT3A): 100 nM (10 nM for 503)
Protocol: Cells were seeded in 24 well-plates at a density of 60,000 cells/well and treated with AA or the derivatives at different concentrations. The media was changed every other day to ensure the continuous activities of AA derivatives. For Erk inhibition experiments, cells were pretreated with 2.5 nM Erk inhibitor (cat. No. 328006, Calbiochem, San Diego, CA, USA) for 2 h prior to the treatment of AA derivatives. At each time point, the total RNA was extracted using TRIzol® reagent following the standard protocol, and the RNA content and purity were measured using a microvolume spectrophotometer (NanoDrop™ One, Thermo Fisher Scientific, USA). Then, 1 μg of RNA sample was reverse-transcribed into complementary DNA (cDNA) using Improm II reverse transcription system (Promega, USA). The expression levels of the target genes were detected by real-time polymerase chain reaction using the SYBR green detection system (FastStart Essential DNA Green Master, Roche Diagnostics, Switzerland) on the MiniOpticon™ RT-PCR system (Bio-Rad, USA). The quantitative RT-PCR was carried out using a LightCycler® 96 (Roche Diagnostics, Switzerland). The transcript expression of GAPDH was used as the internal control. The relative gene expression analysis was performed using the CFX Manager software (Bio-Rad, USA). The expression value was normalised using an expression value of cellular housekeeping gene, GAPDH, and the control was considered for each respective day.

[2] = Aqueous solubility by gravimetric method; type: physicochemical; conditions: thermodynamic from solid, ultrapure water, shaken 24 h, n = 6
Protocol: Aqueous solubility of AA and its derivatives were screened using a gravimetric method. Briefly, AA and the derivatives were dissolved in an excess amount in ultrapure water, and the samples were shaken at room temperature and 37 °C for 24 h. After that, the samples were centrifuged to separate the undissolved compounds. The specific volume of supernatants was then collected and lyophilised. The residual solid after lyophilisation was weighed using a 7-digit balance (XPR2u, Mettler Toledo, OH, USA), and the maximum solubility in water at the different temperature was calculated based on the volume of the collected solution of the compounds. […]

[3] = Cell viability, PrestoBlue resazurin assay; type: cell-based, human; conditions: human, hPDLSCs, 300 nM; for viability at 24 h, 0.3 µM: day 1, general medium
Protocol: (§1) Stock solutions of AA, 501, 502, 503, and 506 were prepared in DMSO at the concentration of 100 µM, before diluting in culture medium to the desired concentration. Cell viability after exposure to the drugs was investigated using a PrestoBlue™ resazurin assay according to the manufacturer’s protocol. Cells with a density of 60,000 cells/well were plated in 24 well-plates and cultured in a normal growth medium for 24 h. Then the cells were treated with 300 nM AA and solutions of, 501, 502, 503, and 506. After 24-h and 5-day incubation, the cultures were treated with resazurin working solution, and the fluorescence intensity at an emission wavelength of 590 nm was measured with excitation of 560-nm wavelength using a microplate reader (Synergy H1, Biotek multi-mode reader, Winooski, VT, USA). Untreated cells were used as the control, and the experiment was performed on different cell lines of at least five donors.

hPDLSCs [4] = assay: Alkaline phosphatase (ALP) activity assay; type: cell-based, human; conditions: 100, 200, 300 nM, D3, normalised to total cellular protein
Protocol: At the designated time points, the ALP activity was measured. Cells treated with different concentrations of AA derivatives were collected, washed with PBS, and lysed with alkaline lysis buffer. The cell lysate was incubated with a mixture containing 2 mg/mL p-nitrophenyl phosphate, 0.1 M 2-amino-2-methyl-1-propanol and 2 mM MgCl2. After incubation at 37 °C for 30 min, the reaction was terminated by addition of 50 mM NaOH. The absorbance at 410 nm was measured, and the quantitative data was normalised by the amount of total cellular protein.

hPDLSCs [5] = assay: Von Kossa and Alizarin red S staining for mineralisation; type: cell-based, human; conditions: 300 nM, 14 days, general medium, compared to osteogenic medium (positive control)
Protocol: In vitro mineralisation was visualised following calcium staining using Von Kossa’s method and Alizarin red S staining according to an established protocol. Briefly, on day 14, the cells were washed and fixed with cold methanol for 10 min before rinsing with deionised water. Von Kossa staining was performed by treating the fixed cells with 5%w/v silver nitrate solution for 30 min. For Alizarin Red S staining, the Alizarin Red S solution (0.5% w/v, pH 4.2) was incubated with the fixed cells for 5 min. The mineralised nodule formation was observed under a phase-contrast microscope (Nikon ECLIPSE Ts2, Nikon, USA). Cells cultured in a normal growth medium were used as the negative control. The cells cultured in an osteogenic medium (DMEM supplemented with […] ascorbic acid, 100 nM dexamethasone, and 10 mM β-glycerophosphate) were regarded as the positive control.

hPDLSCs [6] = assay: Cell viability, PrestoBlue resazurin assay; type: cell-based, human; conditions: 300 nM, up to 5 days
Protocol: as §1

hPDLSCs [7] = assay: BMP2 protein expression by ELISA; type: cell-based, human; conditions: 100 to 300 nM, D1 and D3, general medium
Protocol: The expression levels of targeted proteins were analysed by a sandwich ELISA assay. Firstly, the cells were lysed, and the amount of protein was analysed using a Bio-Rad BCA protein assay kit (Bio‐Rad Laboratories, USA). Following the standard protocol, the target proteins were analysed using an ELISA kit (R&D Systems, USA).

osteoclastogenesis = tested on: osteoclastogenesis; set-up: method as in PMID 32292339; conditions: cited from earlier work
[8] = octanol/water, cited from earlier work
[9] = 37 °C, read-out: Experimental solubility in water at 37 °C (average ± SD)
[10] = room temperature, read-out: Experimental solubility in water at room temperature (average ± SD)
[11] = 300 nM, days 1 and 3, general medium

For `CC(=O)OCC1(C)C(OC(C)=O)C(OC(C)=O)CC2(C)C1CCC1(C)C2CC=C2C3C(C)C(C)CCC3(C(=O)O)CCC21C` (stereo not drawn) [compound 501], the “mRNA expression of all markers (BMP2, RUNX2, COL1A1, WNT3A)” value (“mRNA expression of all markers” for short) (hPDLSCs [1]; 24 h, normal growth medium) was “no observable change”, the solubility at 24 h [2, 9] was 0.654 ± 0.0955 mg/mL (≈ 1060 µM) and the solubility at 24 h [2, 10] was 0.272 ± 0.0315 mg/mL (≈ 442 µM). It also gave a viability at 5 days, 0.3 µM ([3]; day 5, general medium) of less than 75%.
For `CCCCOC(=O)C12CCC(C)C(C)C1C1=CCC3C4(C)CC(OC(C)=O)C(OC(C)=O)C(C)(COC(C)=O)C4CCC3(C)C1(C)CC2` (stereo not drawn) [compound 502], the solubility at 24 h [2, 9] was 0.0145 ± 0.0047 mg/mL (≈ 21.6 µM) and the solubility at 24 h [2, 10] was 0.01 ± 0.0015 mg/mL (≈ 14.9 µM).
For `C[C@H]1[C@H](C)CC[C@]2(C(=O)NCCCN(C)C)CC[C@]3(C)C(=CCC4[C@@]5(C)C[C@@H](O)[C@H](O)[C@@](C)(CO)C5CC[C@]43C)[C@H]12` (stereo partly drawn) [compound 506], the “BMP2 mRNA expression” value (hPDLSCs [1]; 100 nM, 24 h, normal growth medium) was “high expression”, the “WNT3A expression with Erk inhibitor” value (hPDLSCs [1]; 300 nM 506, pretreated with Erk inhibitor, general medium) was “inhibited” and the BMP2 expression (hPDLSCs [1]; 300 nM, day 1) was “High expression”. For the same molecule, the BMP2 expression (hPDLSCs [1]; 300 nM, day 3) was “declining to a control level”, the WNT3A transcript level (hPDLSCs [1]; 300 nM, day 3) was “elevated transcript level” and the COL1A1 expression level (hPDLSCs [1]; [11]) was “no observable change”. The RUNX2 expression level (hPDLSCs [1]; [11]) was “no observable change”, the “ALP expression level compared to control” value (hPDLSCs [1]; 300 nM, general medium) was “enhanced” and the “BMP2 expression level compared to control” value (hPDLSCs [1]; 300 nM, general medium) was “enhanced”. The “IBSP expression level compared to control” value (hPDLSCs [1]; 300 nM, general medium) was “enhanced”, the “OSX expression level compared to control” value (hPDLSCs [1]; 300 nM, general medium) was “enhanced” and the BMP2 gene expression (hPDLSCs [1]; 100 to 300 nM, first day after exposure, general medium) was “elevated transcript level at the lower concentrations (100 and 200 nM)”. For the same molecule, the ALP activity (hPDLSCs [4]) was “dose-dependent increase”, the “Tissue mineralisation (calcium deposition)” value (hPDLSCs [5]) was “comparable to those same cells cultured in an osteogenic medium” and the solubility at 24 h [2, 9] was 0.852 ± 0.0856 mg/mL (≈ 1490 µM). For the same molecule, the solubility at 24 h [2, 10] was 0.81 ± 0.036 mg/mL (≈ 1410 µM), the “Toxicity to hPDLSCs” value (hPDLSCs [6]) was “no significant toxicity” and the BMP2 protein expression (hPDLSCs [7]) was “dose-dependent increase”.
For `CC(=O)OC[C@@]1(C)C2CC[C@]3(C)C(CC=C4[C@@H]5[C@@H](C)[C@H](C)CC[C@]5(C(=O)NCCCN(C)C)CC[C@]43C)[C@@]2(C)C[C@@H](OC(C)=O)[C@@H]1OC(C)=O` (stereo partly drawn) [compound 503], the “mRNA expression of all markers” value (hPDLSCs [1]; 24 h, normal growth medium) was “no observable change”, the solubility at 24 h [2, 9] was 0.331 ± 0.0826 mg/mL (≈ 473 µM) and the solubility at 24 h [2, 10] was 0.164 ± 0.0282 mg/mL (≈ 235 µM). It also gave a viability at 24 h, 0.3 µM [3] of less than 40%.
In the case of `C[C@H]1[C@H](C)CC[C@]2(C(=O)O)CC[C@]3(C)C(=CC[C@@H]4[C@@]5(C)C[C@@H](O)[C@H](O)[C@@](C)(CO)[C@@H]5CC[C@]43C)[C@H]12` [AA, Asiatic acid], the “Concentration required to inhibit osteoclastogenesis or bone loss” value (osteoclastogenesis) is given as “up to 20 µM”, the “mRNA expression of all markers” value (hPDLSCs [1]; 24 h, normal growth medium) is given as “no observable change” and the solubility at 24 h [2, 9] is given as 0.723 ± 0.184 mg/mL (≈ 1480 µM). The solubility at 24 h [2, 10] was 0.541 ± 0.0768 mg/mL (≈ 1110 µM), the “Toxicity to hPDLSCs” value (hPDLSCs [6]) was “no significant toxicity” and the viability at 24 h, 0.3 µM [3] was greater than 90%. For the same molecule, the “Theoretical log P” value ([8]; ref 33) was 5.8 and the “Theoretical log P” value ([8]; ref 38, 39) was 5.7.
